# Source: US20100267680A1, “USE OF AT LEAST ONE OXIME DERIVATIVE OF CHOLEST-4-EN-3-ONE AS ANTIOXIDANTS” (priority 2007, published 2010)
# Assays:
# Beagles = assay: General toxicity study, oral once daily for 39 weeks; assay type: in vivo; conditions: suspension in corn oil
# Method: A general toxicity study was carried out on Beagles receiving cholest-4-èn-3-one oxime in suspension in corn oil by oral administration once daily for 39 weeks. The detailed toxicological analysis of this study made it possible to describe a dose with a no-observed-effect level (NOEL) at 50 mg/kg.
# [1] = Competition with DMPO for tBuO radical, EPR quantification of DMPO-tBuO adduct; conditions: for % inhibition of the DMPO-tBuO radical: compound 20 mM equimolar to DMPO
# Method: The nitrones trap the radical species (R.; […]) and allow their observation by electron paramagnetic resonance (EPR) (Degray J. et al. Electron Spin Resonance, Ed N.M. Atherton, Atheaeum Press Ltd; Cambridge, 1994, 14, 246).
# The incubation of the DMPO (Interchim-U2469) (20 mM) in deoxygenated toluene (Sigma-Aldrich) in the presence of the tBuO (tert-butoxyl) radical, generated by photolysis, makes it possible to identify and quantify by EPR the signal of the DMPO-tBuO radical. This signal is inhibited in the presence of an equimolar quantity of cholest-4-en-3-one oxime.
# The EPR signal allows integration in the form of an area of the signal of the DMPO-tBuO adduct and therefore a relative quantification of this radical entity.
# All the experiments were carried out on an X-band Bruker ESP300 device (9.5 GHz) at ambient temperature. The solutions were studied in a quartz EPR tube.
# [2] = Oxidation of cumene to cumene hydroperoxide by oxygen with AIBN, HPLC-UV assay; conditions: for % of reduction of the oxidation of the cumene / Area of the signal, in relative units, of the cumene hydroperoxide: 2 equivalents of AIBN, 2 hours 45° C.
# Method: The oxidation of cumene at atmospheric pressure and at 37° C. by oxygen is known and described in the presence of a radical initiator such as AIBN (azobisisobutyronitrile) (Blanchard H. S., J. Am. Chem. Soc. 1959, 81, 4548). A recent publication used this reaction to classify the antioxidant potential of known products such as vitamin E (which is the universal reference), BHT (butylated hydroxytoluene) and other products.
# In the following experiment we reproduced the same experimental conditions as those described in the publication of Becker D. A. et al. (J. Am. Chem. Soc. 2002, 124, 4678-4684). A high pressure liquid chromatography method coupled with a UV detector was used to detect cumene hydroperoxide. The column used is an Agilent Zorbax Eclipse XDB RPC8 column (150×4.6 mm) coupled with a UV detector fixed at 254 nm. The gradient used is detailed in the following table: […]
# 2 ml of cumene (AcrosOrganic) and 0.5 ml of methanol are mixed, azobisisobutyronitrile (AcrosOrganic) is added (2 equivalents) and the solution taken to 45° C. in order to accelerate the chemical reaction. The cumene hydroperoxide appears over time and is assayed by the HPLC method.
# The technique used made it possible to compare the appearance of the cumene hydroperoxide in the presence of an antioxidant agent such as the claimed products and vitamin E used as reference product.
# [3] = Chemical stability of powder under ICH storage conditions, HPLC-UV total impurities; assay type: physicochemical; conditions: for total impurities: powder
# Method: These analyses were carried out using a high pressure liquid chromatography method coupled with a UV detector. This method makes it possible to quantify the impurities at a level of 0.05%.
# [4] = Pharmacokinetics in the dog, oral and intra-venous, plasma assay by HPLC-MS; assay type: in vivo; conditions: 500 mg/kg oral route, suspension in corn oil, vs intra-venous
# Method: A study of pharmacokinetics with administration by oral route in suspension in corn oil and by intra-venous route in solution in cremophor/ethanol/water (5%, 10%, 85%) made it possible to calculate the bioavailability of the product. The assay of the product in the plasma is carried out by a high pressure liquid chromatography method coupled with mass spectrometry.
compound,measurement,setting,value
CC(C)CCC[C@@H](C)[C@H]1CC[C@H]2[C@@H]3CCC4=CC(=NO)CC[C@]4(C)[C@H]3CC[C@]12C [cholest-4-en-3-one oxime],no-observed-effect level (NOEL),Beagles,50 mg/kg
same,Area of the DMPO-tBuO signal at 200 s in relative units,"[1]; DMPO 20 mM + compound 20 mM, (t-BuO)2 20 mM, photolysis at 350 nm, 200 s",3 relative units
same,Area of the DMPO-tBuO signal at 400 s in relative units,"[1]; DMPO 20 mM + compound 20 mM, (t-BuO)2 20 mM, photolysis at 350 nm, 400 s",5.5 relative units
same,DMPO-tBuO EPR signal in the presence of an equimolar quantity of compound,"[1]; DMPO 20 mM in deoxygenated toluene, equimolar compound",inhibited
same,% inhibition of the DMPO-tBuO radical,[1]; 200 s,50%
same,% inhibition of the DMPO-tBuO radical,[1]; 400 s,40%
same,inhibition of the level of the DMPO-tBuO signal radical,[1]; conclusion of Example 1,~50%
same,kinetics of inhibition of the DMPO-tBuO signal,[1]; rapid kinetics,less than 10 minutes
same,% of reduction of the oxidation of the cumene,[2]; 100 μM,38%
same,"Area of the signal, in relative units, of the cumene hydroperoxide",[2]; 100 μM,250 relative units
same,% of reduction of the oxidation of the cumene,[2]; 200 μM,57%
same,"Area of the signal, in relative units, of the cumene hydroperoxide",[2]; 200 μM,175 relative units
same,reduction of the oxidation of the cumene by oxygen,[2]; conclusion of Example 2,approximately 40%
same,activity compared with vitamin E,"[2]; same concentrations, same conditions",activity similar to vitamin E
same,change in the quality of the product,[3]; after 2 year's storage at 25° C.,No change in the quality of the product
same,change in the quality of the product,[3]; after 6 months of storage at 40° C.,No change in the quality of the product
same,total impurities,"[3]; 25° C. under 60% relative humidity, T0",1.8%
same,total impurities,"[3]; 25° C. under 60% relative humidity, T24 months",1.8%
same,total impurities,"[3]; 40° C. under 75% relative humidity, T0",2.1%
same,total impurities,"[3]; 40° C. under 75% relative humidity, T6 months",1.9%
same,bioavailability,[4],6%
vitamin E [reference compound],% of reduction of the oxidation of the cumene,[2]; 100 μM,39%
same,"Area of the signal, in relative units, of the cumene hydroperoxide",[2]; 100 μM,245 relative units
